For one assay, the target named is T1, Human GLP-1R (Homo sapiens, UniProt P43220).
T1 construct: expressed in transfected cells; host or cells: HEK cells infected with GLP-1R BacMam
The assay can be described thus: Functional antagonism of human GLP1 receptors, cAMP accumulation assay (HiRange cAMP kit, HEK cells infected with GLP-1R Bacmam, GLP-1(7-36) amide at EC80). In kind it is cell-based. The settings on record: functional pKb from IC50 corrected by Cheng-Prusoff adaptation, GLP-1(7-36) at EC80. The procedure: The method followed a two-step protocol provided in the kit. In brief, HEK cells infected with 1% v/v GLP-1R Bacmam for 24 h were harvested using cell dissociation solution (Gibco), centrifuged and resuspended in the assay buffer (HBSS (Lonza) supplemented with 0.5 mM IBMX (Tocris)). DMSO stock of test compounds were serially diluted in the assay buffer and added to 96-well half area white plates (Costar). Final DMSO concentration in the assay was 0.3%. 20K cells per well were added to plates followed by 30 min incubation (humidified air (5% CO2), 37° C.). […] Intracellular accumulation of cAMP was stopped by addition of the HTRF detection reagents in lysis buffer, provided in the kit. Following 1-hour incubation at RT, plates were read on Pherastar FS (BMG Labtech, Inc.) Dotmatics Studies software was used for fitting data to a four-parameter concentration response curve. Calculated IC50 values were corrected for the agonist concentration using an adaptation of the Cheng-Prusoff equation to generate functional pKb values: […]
Background: Changes in cAMP serve as a functional read-out for many G protein-coupled receptors.

Another assay addresses T2, Mouse GLP-1R (Mus musculus, UniProt O35659).
T2 construct: expressed in transfected cells
T2 sequence (O35659 22-463): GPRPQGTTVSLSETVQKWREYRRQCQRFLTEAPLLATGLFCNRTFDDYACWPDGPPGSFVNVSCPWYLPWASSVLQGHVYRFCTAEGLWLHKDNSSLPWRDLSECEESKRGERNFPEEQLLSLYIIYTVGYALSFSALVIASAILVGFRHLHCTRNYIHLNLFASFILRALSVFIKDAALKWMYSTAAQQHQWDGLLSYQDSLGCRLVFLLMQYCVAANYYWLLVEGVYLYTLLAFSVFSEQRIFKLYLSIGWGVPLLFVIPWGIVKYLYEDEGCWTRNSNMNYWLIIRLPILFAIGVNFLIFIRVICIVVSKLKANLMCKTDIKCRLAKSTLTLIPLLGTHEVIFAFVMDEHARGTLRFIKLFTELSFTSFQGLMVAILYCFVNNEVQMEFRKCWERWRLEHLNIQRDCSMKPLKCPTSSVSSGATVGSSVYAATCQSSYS
The assay can be described thus: Functional antagonism of mouse GLP1 receptors, cAMP accumulation assay (HitHunter, CHO-K1 cells stably expressing mouse GLP-1R, Exendin-4 at EC80). The format is cell-based. The settings on record: functional pKb from IC50 corrected by Cheng-Prusoff adaptation. An excerpt:
Final DMSO concentration in the assay was 1%. […] Calculated IC50 values were corrected for the agonist concentration using an adaptation of the Cheng-Prusoff equation to generate functional pKb values: […]

T1 sequence (P43220 24-463): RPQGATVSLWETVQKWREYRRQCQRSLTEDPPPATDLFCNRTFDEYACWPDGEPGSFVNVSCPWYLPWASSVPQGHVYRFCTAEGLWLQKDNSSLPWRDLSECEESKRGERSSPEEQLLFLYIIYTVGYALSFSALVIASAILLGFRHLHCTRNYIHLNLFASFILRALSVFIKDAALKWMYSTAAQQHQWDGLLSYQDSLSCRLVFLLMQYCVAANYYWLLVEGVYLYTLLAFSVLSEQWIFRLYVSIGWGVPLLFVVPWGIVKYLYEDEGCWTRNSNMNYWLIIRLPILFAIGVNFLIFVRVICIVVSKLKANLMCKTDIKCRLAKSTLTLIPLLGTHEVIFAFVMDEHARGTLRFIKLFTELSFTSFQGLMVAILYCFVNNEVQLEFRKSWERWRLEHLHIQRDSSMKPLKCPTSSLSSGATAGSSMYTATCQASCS

exendin(9-39)amide [Ex 9-39]: the “Human GLP-1R antagonist cAMP fpKb” value at Human GLP-1R was determined as 7.8. For the same substance, the “Mouse GLP-1R antagonist cAMP fpKb” value at Mouse GLP-1R worked out at 7.2.

These data come from patent US12441777B2 (NXERA PHARMA UK LIMITED, priority 2018, dated 2025).
